In PubChem BioAssay (NCI) one finds GI50 and TGI data, which are given here for eight compounds.

Values joined by “and” are separate entries in the source; they are usually repeats but may differ in a detail not shown here. Equal values may be shown once.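 Growth conditions: 96-well plates. Treatment: test compound, 48 hours, 5 concentrations. Analysis: linear interpolation between bracketing concentrations; unreached endpoints set to highest concentration. The concentration for 50% growth inhibition is given as GI50. TGI: total growth inhibition.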

Test systems include 786-0 renal; IGROV1 ovarian; NCI-H226 lung; RPMI-8226 leukemia; RXF 393 renal; SF-268 CNS; SK-OV-3 ovarian; SR leukemia; TK-10 renal; U251 CNS.
Holding throughout (test): DTP human tumour cell line panel, 48 h

A word on the GI50: it is the concentration at which growth is held to half of that of the control. As a reminder, the TGI is the concentration giving total growth inhibition. A lower TGI goes with greater sensitivity of the cells. Take `CC(=O)OC(C)(C)/C=C/C(=O)[C@](C)(O)[C@H]1[C@H](O)C[C@@]2(C)[C@@H]3CC=C4[C@@H](C[C@H](O)C(=O)C4(C)C)[C@]3(CO)C(=O)C[C@]12C`: the GI50 in the assay on 786-0 renal is 0.2 µM; in the assay with IGROV1 ovarian it was 0.463 µM; in the assay on NCI-H226 lung, 0.29 µM; in the assay with RPMI-8226 leukemia, 0.356 µM; in the assay on SF-268 CNS it was 0.362 µM; in the assay with SK-OV-3 ovarian, 0.333 µM. The figures for the GI50 in the assay with SR leukemia, in the assay on TK-10 renal and in the assay with U251 CNS were 0.462 µM, 0.251 µM and 0.267 µM, respectively. Also, the TGI in the assay on 786-0 renal was 0.889 µM and 0.475 µM; in the assay with IGROV1 ovarian, 0.907 µM and 2.89 µM; in the assay on NCI-H226 lung, 0.776 µM and 0.293 µM; in the assay with RPMI-8226 leukemia, 2.28 µM; with RXF 393 renal, 0.405 µM and 0.458 µM; in the assay on SF-268 CNS, 0.971 µM and 1.29 µM. The TGI was 29.4 µM in the assay with SR leukemia; 0.318 µM and 0.512 µM in the assay on TK-10 renal; 0.592 µM and 1.52 µM with U251 CNS.
Take `CSc1n(Cc2ccc3ccccc3c2)c(C)c[n+]1Cc1ccc2ccccc2c1`: the GI50 with 786-0 renal was 1.53 µM; in the assay on IGROV1 ovarian, 0.49 µM; in the assay with NCI-H226 lung it was 1.31 µM; with RPMI-8226 leukemia, 0.287 µM; with RXF 393 renal, 0.938 µM; in the assay with SF-268 CNS, 0.69 µM. Besides, the GI50 was 1.18 µM with SK-OV-3 ovarian, 0.363 µM with SR leukemia, 1.41 µM with TK-10 renal and 0.422 µM with U251 CNS. Moreover, the concentration for total growth inhibition (TGI) in the assay on 786-0 renal turned out to be 2.97 µM; with IGROV1 ovarian, 1.8 µM; with NCI-H226 lung, 3.18 µM; in the assay with RPMI-8226 leukemia it was 1.36 µM; in the assay on RXF 393 renal, 2.47 µM; with SF-268 CNS, 2.13 µM. Moreover, the concentration for total growth inhibition (TGI) in the assay with SK-OV-3 ovarian came out at 2.61 µM; in the assay with SR leukemia it was 2.52 µM; in the assay on TK-10 renal, 2.88 µM; with U251 CNS it was 1.65 µM.
For `OC(C1CO1)C(O)C1CO1` (configuration not stated), the GI50 was 18.7 µM in the assay on 786-0 renal; 129 µM in the assay on IGROV1 ovarian; 47.7 µM and 122 µM in the assay with NCI-H226 lung; 84 µM in the assay on RPMI-8226 leukemia; 71.4 µM in the assay on RXF 393 renal; 27.4 µM and 27.5 µM in the assay with SF-268 CNS. The GI50 is 5.68 µM in the assay with SK-OV-3 ovarian, 182 µM in the assay with TK-10 renal and 7.78 µM in the assay on U251 CNS. Besides, the TGI is 48.5 µM and 139 µM in the assay with 786-0 renal; 149 µM and 327 µM in the assay with IGROV1 ovarian; 136 µM and 412 µM with NCI-H226 lung; 150 µM and 861 µM in the assay on RPMI-8226 leukemia; 139 µM and 231 µM in the assay on RXF 393 renal; 114 µM and 513 µM with SF-268 CNS. The TGI in the assay with SK-OV-3 ovarian is 95.2 µM and 186 µM; with SR leukemia it was 72.2 µM and 528 µM; with TK-10 renal, 150 µM and 404 µM; with U251 CNS it was 114 µM and 168 µM.
On to `Clc1cccc(N2CCN(CCN3CCc4c([nH]c5ccccc45)C3c3cccnc3)CC2)c1` (configuration not stated), for which the TGI with 786-0 renal was over 73.5 µM; with IGROV1 ovarian it was over 100 µM; in the assay on NCI-H226 lung it was over 62.4 µM; in the assay with RPMI-8226 leukemia, over 84.1 µM; with RXF 393 renal it was over 100 µM; in the assay with SF-268 CNS it was over 100 µM. Besides, the total growth inhibition concentration (TGI) in the assay on SK-OV-3 ovarian, in the assay with SR leukemia, with TK-10 renal and with U251 CNS was over 100 µM throughout.
For `COc1cc2c(cc1OC)-c1ccc3cc4c(cc3c1N(CCN(C)C)C2)OCO4`, the GI50 is 0.442 µM in the assay with 786-0 renal; 0.943 µM with IGROV1 ovarian; 0.772 µM with NCI-H226 lung; 0.221 µM in the assay with RPMI-8226 leukemia; 0.848 µM with RXF 393 renal; 0.214 µM with SF-268 CNS. For the same compound, the GI50 with SK-OV-3 ovarian was 0.518 µM; with SR leukemia, 0.0524 µM; with TK-10 renal, 2.03 µM; with U251 CNS it was 0.215 µM. The TGI with 786-0 renal worked out at 1.99 µM; with IGROV1 ovarian, 3.25 µM; with NCI-H226 lung, 2.52 µM; in the assay on RPMI-8226 leukemia, 1.36 µM; in the assay on RXF 393 renal, 2.89 µM; in the assay with SF-268 CNS, 2.41 µM. Moreover, the total growth inhibition concentration (TGI) with SK-OV-3 ovarian was determined as 3.2 µM; in the assay on SR leukemia it was 2.63 µM; with TK-10 renal, 7.39 µM; with U251 CNS, 1.23 µM.
Turning to `O=C1C(Cl)=C(Nc2cccc(O)c2)C(=O)N1Cc1ccc(Cl)cc1`, the GI50 with 786-0 renal was 1.63 µM; in the assay with IGROV1 ovarian it was 3.93 µM; in the assay with NCI-H226 lung, 1.21 µM; in the assay with RPMI-8226 leukemia, 1.07 µM; in the assay on RXF 393 renal it was 3.95 µM; in the assay with SF-268 CNS, 4.26 µM. Besides, the GI50 was 3.7 µM in the assay with SK-OV-3 ovarian, 0.358 µM in the assay on SR leukemia, 5.86 µM in the assay on TK-10 renal and 1.86 µM in the assay with U251 CNS. Besides, the concentration for total growth inhibition (TGI) in the assay on 786-0 renal was 28.1 µM; with IGROV1 ovarian, 40 µM; in the assay on NCI-H226 lung it was 4.91 µM; with RPMI-8226 leukemia it was over 100 µM; in the assay on RXF 393 renal it was over 100 µM; in the assay with SF-268 CNS, 18.6 µM. The TGI in the assay with SK-OV-3 ovarian came to 19.9 µM; in the assay with SR leukemia it was 14.8 µM; in the assay on TK-10 renal, 19.8 µM; with U251 CNS it was 26.9 µM.
Take `N#C/C(=C\Nc1ccccn1)C(=O)c1ccco1`: the concentration for total growth inhibition (TGI) in the assay on 786-0 renal, with IGROV1 ovarian, in the assay on NCI-H226 lung, in the assay on RPMI-8226 leukemia, in the assay on RXF 393 renal and in the assay with SF-268 CNS was over 100 µM in each case. Further, the TGI with SK-OV-3 ovarian, with SR leukemia, in the assay on TK-10 renal and with U251 CNS was over 100 µM in each case.
Consider `O=CC(Br)C(Br)c1ccccc1` (configuration not stated), for which the GI50 in the assay on 786-0 renal was 2.5 µM; in the assay with IGROV1 ovarian, 11 µM; in the assay on NCI-H226 lung, 6.8 µM; in the assay on RPMI-8226 leukemia, 2.14 µM; with RXF 393 renal, 1.82 µM; with SF-268 CNS it was 4.2 µM. The GI50 in the assay with SK-OV-3 ovarian was 16.6 µM; in the assay with SR leukemia, 0.445 µM; in the assay on TK-10 renal it was 1.74 µM; with U251 CNS, 7.4 µM. In addition, the total growth inhibition concentration (TGI) with 786-0 renal stood at 6.46 µM; with IGROV1 ovarian, 26 µM; with NCI-H226 lung, 18.7 µM; with RPMI-8226 leukemia it was 5.39 µM; in the assay with RXF 393 renal, 3.78 µM; in the assay on SF-268 CNS it was 16 µM. The total growth inhibition concentration (TGI) in the assay with SK-OV-3 ovarian stood at 30.3 µM; in the assay with SR leukemia, 2.81 µM; in the assay with TK-10 renal it was 3.56 µM; in the assay on U251 CNS it was 20.4 µM.
